Patent US9199985B2, “Compounds and methods for treatment of hypertension” (Medivation Technologies, Inc., priority 2011, dated 2015)

Conditions: conscious rabbits, intravenous, dose regimen identical to test compound; positive control
Method: Four adult New Zealand White rabbits of both sexes are chosen for these studies. […] The conscious rabbits are implanted with an intravenous catheter in marginal ear vein or by centrally by intracisternal catheter interfaced to a pressure transducer connected to a suitable recorder. To unveil peripheral effects of test compound, two sets of acute studies are conducted in rabbits. In the first set of studies, test compound is dosed to rabbit intravenously for a dose-response study with cumulative doses starting 0 (Ringer's Lock solution as a vehicle), 0.1, 0.3, 1, 3.2 and 10 mg/kg where each dose is tested on a separate day. A single intravenous bolus dose at 3 mg/kg is given and a time-course study is conducted in the second set of studies. Systolic, diastolic, mean and diastolic blood pressures are recorded in both the studies. Data collections are made for 3 hours in the second set of studies. Heart rate (HR) is derived electronically using an algorithm to determine HR from pulse interval. In a separate set of studies, Clonidine (positive control) is tested where all experimental procedures including dose-regimen are identical to that of the studies with test compound.

Clc1cccc(Cl)c1N=C1NCCN1 [Clonidine]
maximum drop of arterial blood pressure: −6 mmHg
